Source: patent publication US8415469B2, “Compounds and methods for kinase modulation, and indications therefor” (Plexxikon Inc., priority 2005, dated 2013)

Columns and labels:
Format in all cases: biochemical
Btk = target: T1, Btk (Homo sapiens, UniProt Q06187); assay: Z'-Lyte FRET kinase assay (Invitrogen), Btk; settings: read-out: IC50, activity toward kinase Btk
T1 construct: purchased Invitrogen (assay run by Invitrogen)

Yes = target: T2, Yes (Homo sapiens, UniProt P07947); assay: Z'-Lyte FRET kinase assay (Invitrogen), Yes; settings: read-out: IC50, activity toward kinase Yes
T2 construct: purchased Invitrogen (Carlsbad, Calif.), screening service
T2 sequence (P07947 whole entry): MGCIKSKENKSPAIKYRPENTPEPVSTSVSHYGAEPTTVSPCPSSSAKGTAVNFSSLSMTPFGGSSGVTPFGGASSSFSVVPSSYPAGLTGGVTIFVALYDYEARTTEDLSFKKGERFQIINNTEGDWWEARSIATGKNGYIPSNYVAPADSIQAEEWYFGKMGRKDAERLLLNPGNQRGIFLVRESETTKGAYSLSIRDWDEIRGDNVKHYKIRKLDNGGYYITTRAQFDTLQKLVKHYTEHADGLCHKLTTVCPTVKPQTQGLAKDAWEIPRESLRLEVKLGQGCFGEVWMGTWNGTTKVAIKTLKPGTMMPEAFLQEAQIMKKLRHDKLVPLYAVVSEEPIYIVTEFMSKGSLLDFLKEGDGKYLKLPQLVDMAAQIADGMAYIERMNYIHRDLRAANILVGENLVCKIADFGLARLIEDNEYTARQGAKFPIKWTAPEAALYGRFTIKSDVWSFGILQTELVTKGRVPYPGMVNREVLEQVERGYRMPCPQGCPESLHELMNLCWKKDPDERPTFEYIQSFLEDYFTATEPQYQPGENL
Outline: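 Z′-Lyte FRET assay: kinase phosphorylates 2 μM peptide substrate at 10 μM ATP in 50 mM HEPES pH 7.5, 50 mM MgCl2, 5 mM EGTA, 0.05% BRIJ-35, 1% DMSO, 1 h at room temperature. Protease development 1 h; coumarin/fluorescein emission ratio gives phosphorylation extent over compound concentration curves.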

Kdr = target: T3, Kdr (Homo sapiens, UniProt P35968); assay: Z'-Lyte FRET kinase assay (Invitrogen), Kdr; settings: read-out: IC50, activity toward kinase Kdr
T3 construct: purchased Invitrogen (assay run by Invitrogen)
T3 sequence (P35968 20-1356): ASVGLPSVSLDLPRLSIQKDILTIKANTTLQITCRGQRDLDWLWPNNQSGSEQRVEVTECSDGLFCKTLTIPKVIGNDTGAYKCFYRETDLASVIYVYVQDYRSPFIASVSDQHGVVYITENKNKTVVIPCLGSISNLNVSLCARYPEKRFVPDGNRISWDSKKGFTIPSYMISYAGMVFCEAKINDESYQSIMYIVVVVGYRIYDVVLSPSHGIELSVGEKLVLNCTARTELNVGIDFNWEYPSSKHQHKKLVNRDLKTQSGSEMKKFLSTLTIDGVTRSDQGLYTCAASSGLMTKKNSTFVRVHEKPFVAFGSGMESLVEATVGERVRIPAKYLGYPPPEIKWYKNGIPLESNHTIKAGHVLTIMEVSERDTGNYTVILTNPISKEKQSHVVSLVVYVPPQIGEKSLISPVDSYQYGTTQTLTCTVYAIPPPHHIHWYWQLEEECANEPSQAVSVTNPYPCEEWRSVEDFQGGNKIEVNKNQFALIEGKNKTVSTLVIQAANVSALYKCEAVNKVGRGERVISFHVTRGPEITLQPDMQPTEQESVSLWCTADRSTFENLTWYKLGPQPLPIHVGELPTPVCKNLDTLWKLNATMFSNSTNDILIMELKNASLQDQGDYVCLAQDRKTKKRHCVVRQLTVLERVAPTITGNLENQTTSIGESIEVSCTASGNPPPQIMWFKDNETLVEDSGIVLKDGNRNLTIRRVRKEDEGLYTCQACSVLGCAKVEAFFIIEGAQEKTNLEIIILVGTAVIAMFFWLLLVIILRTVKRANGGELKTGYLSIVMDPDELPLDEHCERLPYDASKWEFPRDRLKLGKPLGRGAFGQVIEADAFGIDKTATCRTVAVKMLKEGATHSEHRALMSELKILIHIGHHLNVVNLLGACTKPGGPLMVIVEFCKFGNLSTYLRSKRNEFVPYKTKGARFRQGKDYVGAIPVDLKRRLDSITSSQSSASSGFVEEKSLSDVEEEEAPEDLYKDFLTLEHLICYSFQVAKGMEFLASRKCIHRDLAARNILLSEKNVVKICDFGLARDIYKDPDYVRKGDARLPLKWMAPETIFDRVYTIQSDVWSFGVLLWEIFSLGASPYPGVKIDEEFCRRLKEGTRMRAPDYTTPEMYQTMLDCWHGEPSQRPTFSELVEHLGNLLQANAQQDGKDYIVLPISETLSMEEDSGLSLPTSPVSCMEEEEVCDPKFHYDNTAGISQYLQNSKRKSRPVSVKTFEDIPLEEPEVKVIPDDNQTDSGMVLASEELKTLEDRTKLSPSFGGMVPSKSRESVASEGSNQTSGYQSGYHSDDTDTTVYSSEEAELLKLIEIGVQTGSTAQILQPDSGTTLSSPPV

EphB2 = target: T4, EphB2 (Homo sapiens, UniProt P29323); assay: Z'-Lyte FRET kinase assay (Invitrogen), EphB2; settings: read-out: IC50, activity toward kinase EphB2
T4 construct: purchased Invitrogen (assay run by Invitrogen)
T4 sequence (P29323 19-1055): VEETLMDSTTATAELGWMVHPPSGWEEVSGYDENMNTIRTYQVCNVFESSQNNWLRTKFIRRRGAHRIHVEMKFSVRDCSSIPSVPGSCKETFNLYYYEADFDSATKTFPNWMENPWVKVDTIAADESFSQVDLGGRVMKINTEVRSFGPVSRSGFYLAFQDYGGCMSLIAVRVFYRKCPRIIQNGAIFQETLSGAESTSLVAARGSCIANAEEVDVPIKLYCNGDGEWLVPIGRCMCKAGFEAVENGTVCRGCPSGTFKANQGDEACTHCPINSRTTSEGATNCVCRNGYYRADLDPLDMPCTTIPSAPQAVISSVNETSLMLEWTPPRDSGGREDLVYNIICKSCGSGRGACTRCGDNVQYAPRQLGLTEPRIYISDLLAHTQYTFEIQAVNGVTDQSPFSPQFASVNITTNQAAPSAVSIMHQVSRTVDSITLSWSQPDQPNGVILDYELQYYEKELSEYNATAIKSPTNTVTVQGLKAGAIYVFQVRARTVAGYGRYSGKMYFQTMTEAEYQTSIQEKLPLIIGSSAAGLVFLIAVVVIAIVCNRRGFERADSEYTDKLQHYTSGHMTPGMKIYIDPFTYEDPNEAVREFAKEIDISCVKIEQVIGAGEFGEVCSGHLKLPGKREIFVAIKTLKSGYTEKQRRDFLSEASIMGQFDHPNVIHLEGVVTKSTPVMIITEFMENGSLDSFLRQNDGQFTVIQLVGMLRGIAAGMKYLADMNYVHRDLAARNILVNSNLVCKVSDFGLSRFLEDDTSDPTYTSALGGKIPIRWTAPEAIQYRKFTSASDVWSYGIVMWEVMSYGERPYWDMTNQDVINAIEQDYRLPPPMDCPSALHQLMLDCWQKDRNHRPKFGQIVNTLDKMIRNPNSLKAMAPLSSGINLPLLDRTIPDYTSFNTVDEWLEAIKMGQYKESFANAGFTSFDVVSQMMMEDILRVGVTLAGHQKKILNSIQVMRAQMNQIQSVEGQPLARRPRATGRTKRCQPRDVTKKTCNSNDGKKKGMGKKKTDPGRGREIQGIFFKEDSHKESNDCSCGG
Excerpt: The effect of potential modulators of kinase activity can be measured in a variety of different assays known in the art. For example, direct radiometric, indirect FRET or AlphaScreen assays may be used to assess the level of phosphorylation of a substrate in the presence of test compounds in order to determine the inhibitory affect of the compound on the kinase. Invitrogen (Carlsbad, Calif.) uses a FRET based assay for Btk, EGFR, EphB2, Flt3, lrak4, Kdr, MAP2K1, MAPKAPK2, PDGFRB, PKC theta, Stk6 and Yes. For these assays, compounds of the invention were screened by Invitrogen using Z′-Lyte™ kinase assay.
Briefly, the Invitrogen kinase assay involves use of a specific peptide substrate optimized for each kinase, containing a fluorophore at each end that make up the FRET pair. The peptide sensitivity to proteolytic cleavage depends on phosphorylation of the peptide. Non-phosphorylated peptide is cleaved by a protease while peptide phosphorylated by the kinase is not cleaved. Cleavage of the peptide disrupts the FRET between the donor (coumarin) and acceptor (fluorescein) fluorophores, resulting in an increase in the ratio of donor emission to acceptor emission. The emission ratio of coumarin to fluorescein is used to assess the reaction progress. The extent of phosphorylation is determined from the emission ratio, which is low when the kinase is active (phosphorylated peptide is not cleaved, FRET pair connected) or higher for inhibited kinase (non-phosphorylated peptide is cleaved, FRET pair separated). Thus, the assay involves a kinase reaction in the presence of varying concentrations of a given compound, a development reaction with site specific protease, and detection of the fluorescent emission ratio of coumarin and fluorscein. […] Reaction conditions for each kinase are determined to provide optimal reaction times, incubation temperature, kinase and ATP concentrations. Test samples are made up in 1× kinase buffer (50 mM HEPES pH 7.5, 50 mM MgCl2, 5 mM EGTA, 0.05% BRIJ-35) and compound at desired concentration prepared in DMSO such that the final DMSO is 1%. […] Typically, assay plates are prepared to 10 μl final volume per sample, adding 2.5 μl of compound at 4× the desired concentration in 4% DMSO (serial dilution of compound provides concentration curve), 5 μl of the desired kinase mixed with Z′-LYTE™ peptide substrate (2× in 2× kinase buffer, final peptide at 2 μM), and 2.5 μl of 4×ATP solution. All kinase except for MAP2K1 were at 10 μM ATP in the kinase reaction, while MAP2K1 was at 100 μM. Samples are mixed and the kinase reaction is incubated 1 hour at room temperature, after which 5 μl of development solution is added and mixed. After incubation for another 1 hour at room temperature, 5 μl of stop reagent is added to each sample and mixed. The fluorescence signals are measured to determine the emission ratio.

Fms = target: T5, Fms (Homo sapiens, UniProt P07333); assay: AlphaScreen kinase assay, Fms; settings: read-out: IC50, activity toward kinase Fms
T5 construct: purchased Upstate Biotechnology

Stk6 = target: T6, Stk6 (Homo sapiens, UniProt O14965); assay: Z'-Lyte FRET kinase assay (Invitrogen), Stk6; settings: read-out: IC50, activity toward kinase Stk6
T6 construct: purchased Invitrogen (Carlsbad, Calif.), screening service
T6 sequence (O14965 1-403): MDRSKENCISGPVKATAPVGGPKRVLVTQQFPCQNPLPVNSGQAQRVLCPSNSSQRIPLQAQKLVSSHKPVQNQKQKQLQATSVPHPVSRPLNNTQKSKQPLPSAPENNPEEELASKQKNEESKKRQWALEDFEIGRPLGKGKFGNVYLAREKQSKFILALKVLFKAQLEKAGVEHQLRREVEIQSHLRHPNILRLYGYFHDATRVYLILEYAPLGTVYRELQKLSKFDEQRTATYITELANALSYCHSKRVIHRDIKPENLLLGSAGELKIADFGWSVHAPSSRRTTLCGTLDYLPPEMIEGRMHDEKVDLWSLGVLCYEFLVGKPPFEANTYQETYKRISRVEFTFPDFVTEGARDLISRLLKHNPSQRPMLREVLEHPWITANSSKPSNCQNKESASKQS

B-Raf V600E = target: T7, B-Raf V600E (Homo sapiens, UniProt P15056, V600E); assay: AlphaScreen kinase assay, B-Raf V600E; settings: read-out: IC50, activity toward kinase B-Raf V600E
T7 construct: P4254. pFastBacBD-CDC37 BRAF D437-K722-X, V600E; His6 with pFastBac HT leader (TEV site) (N); made in house; host or cells: Sf9 (baculovirus; chaperone CDC37 co-expressed)
T7 sequence (P15056 with tags, fused parts or gaps V600E): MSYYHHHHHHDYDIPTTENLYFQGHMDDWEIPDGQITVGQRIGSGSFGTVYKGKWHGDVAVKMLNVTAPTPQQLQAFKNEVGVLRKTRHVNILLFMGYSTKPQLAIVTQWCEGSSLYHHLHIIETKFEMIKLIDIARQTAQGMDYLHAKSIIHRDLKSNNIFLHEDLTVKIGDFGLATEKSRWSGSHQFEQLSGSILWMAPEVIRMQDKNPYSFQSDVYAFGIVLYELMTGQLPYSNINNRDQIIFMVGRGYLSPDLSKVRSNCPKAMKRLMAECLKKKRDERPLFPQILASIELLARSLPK

Ret = target: T8, Ret (Homo sapiens, UniProt P07949); assay: AlphaScreen kinase assay, Ret; settings: read-out: IC50, activity toward kinase Ret
T8 construct: P1378.pET-SF BI-PTP RET H661-R1012 HIS; made in house
T8 sequence (P07949 with tags, fused parts or gaps): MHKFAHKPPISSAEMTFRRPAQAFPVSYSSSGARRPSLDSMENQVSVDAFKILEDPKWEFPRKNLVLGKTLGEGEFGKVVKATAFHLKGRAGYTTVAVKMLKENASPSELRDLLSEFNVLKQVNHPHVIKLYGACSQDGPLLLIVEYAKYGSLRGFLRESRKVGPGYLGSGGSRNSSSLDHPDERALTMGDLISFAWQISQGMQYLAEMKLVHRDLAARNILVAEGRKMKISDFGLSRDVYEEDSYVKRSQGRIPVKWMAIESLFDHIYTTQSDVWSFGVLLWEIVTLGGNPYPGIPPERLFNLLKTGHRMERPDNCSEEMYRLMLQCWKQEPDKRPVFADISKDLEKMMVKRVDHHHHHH

FGFR1 = target: T9, FGFR1 (Homo sapiens, UniProt P11362, C488A/C584S); assay: AlphaScreen kinase assay, FGFR1; settings: read-out: IC50, activity toward kinase FGFR
T9 construct: P1351.pET N6 BI-PTP FGFR A458-E765-X C488A, C584S; made in house; host or cells: E. coli (PTP1B co-expressed)
T9 sequence (P11362 458-765 C488A/C584S): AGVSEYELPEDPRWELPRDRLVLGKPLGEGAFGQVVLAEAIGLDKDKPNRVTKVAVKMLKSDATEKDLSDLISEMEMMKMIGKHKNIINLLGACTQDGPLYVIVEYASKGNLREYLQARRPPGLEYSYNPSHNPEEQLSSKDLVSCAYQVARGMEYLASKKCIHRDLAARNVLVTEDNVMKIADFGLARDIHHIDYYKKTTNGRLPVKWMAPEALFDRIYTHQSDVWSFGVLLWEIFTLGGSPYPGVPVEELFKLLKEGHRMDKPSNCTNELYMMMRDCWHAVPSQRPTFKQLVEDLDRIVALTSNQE

B-Raf = target: T10, B-Raf (Homo sapiens, UniProt P15056); assay: AlphaScreen kinase assay, B-Raf; settings: read-out: IC50, activity toward kinase B-Raf
T10 construct: purchased Upstate Biotechnology
T10 sequence (P15056 whole entry): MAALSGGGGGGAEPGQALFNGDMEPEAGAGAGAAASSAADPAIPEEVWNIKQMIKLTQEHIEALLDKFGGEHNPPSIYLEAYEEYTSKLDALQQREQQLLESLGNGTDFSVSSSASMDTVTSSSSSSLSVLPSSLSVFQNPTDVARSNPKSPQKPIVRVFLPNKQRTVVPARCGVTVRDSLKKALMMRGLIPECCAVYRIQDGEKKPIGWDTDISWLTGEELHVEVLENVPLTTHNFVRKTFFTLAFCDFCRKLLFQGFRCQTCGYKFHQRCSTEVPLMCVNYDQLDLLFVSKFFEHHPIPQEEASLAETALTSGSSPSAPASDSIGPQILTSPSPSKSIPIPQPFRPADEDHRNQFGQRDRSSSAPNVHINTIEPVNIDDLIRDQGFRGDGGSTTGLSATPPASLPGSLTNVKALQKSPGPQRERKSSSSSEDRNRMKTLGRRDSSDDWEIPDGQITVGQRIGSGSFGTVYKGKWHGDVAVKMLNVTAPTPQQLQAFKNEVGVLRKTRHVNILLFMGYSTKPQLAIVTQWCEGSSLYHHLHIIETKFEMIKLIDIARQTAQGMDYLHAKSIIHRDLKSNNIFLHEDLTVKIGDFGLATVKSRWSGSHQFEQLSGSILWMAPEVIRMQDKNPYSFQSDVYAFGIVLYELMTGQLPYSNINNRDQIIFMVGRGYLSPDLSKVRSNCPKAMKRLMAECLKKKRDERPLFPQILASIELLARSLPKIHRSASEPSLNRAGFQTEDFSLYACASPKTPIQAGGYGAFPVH

Jnk3 = target: T11, Jnk3 (Homo sapiens, UniProt P53779); assay: AlphaScreen kinase assay, Jnk3; settings: read-out: IC50, activity toward kinase Jnk3
T11 construct: purchased Upstate Biotechnology
T11 sequence (P53779 whole entry): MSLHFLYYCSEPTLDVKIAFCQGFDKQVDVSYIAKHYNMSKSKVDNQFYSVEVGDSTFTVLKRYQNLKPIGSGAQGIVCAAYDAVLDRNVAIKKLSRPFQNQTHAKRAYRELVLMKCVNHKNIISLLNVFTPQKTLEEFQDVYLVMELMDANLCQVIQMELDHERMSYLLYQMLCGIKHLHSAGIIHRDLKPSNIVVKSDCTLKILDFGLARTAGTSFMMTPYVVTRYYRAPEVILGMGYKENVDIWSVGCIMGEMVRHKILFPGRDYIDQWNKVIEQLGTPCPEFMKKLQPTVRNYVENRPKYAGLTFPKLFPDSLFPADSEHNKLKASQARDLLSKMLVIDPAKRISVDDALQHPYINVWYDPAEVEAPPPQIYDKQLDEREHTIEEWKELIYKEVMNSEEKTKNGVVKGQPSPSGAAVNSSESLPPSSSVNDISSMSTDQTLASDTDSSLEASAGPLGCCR

Kit = target: T12, Kit (Homo sapiens, UniProt P10721); assay: AlphaScreen kinase assay, Kit; settings: read-out: IC50, activity toward kinase Kit
T12 construct: P1332.N6 BI PTP KIT M552-K948-X COD; His6 (N); made in house; host or cells: E. coli (PTP1B co-expressed)
T12 sequence (P10721 with tags, fused parts or gaps): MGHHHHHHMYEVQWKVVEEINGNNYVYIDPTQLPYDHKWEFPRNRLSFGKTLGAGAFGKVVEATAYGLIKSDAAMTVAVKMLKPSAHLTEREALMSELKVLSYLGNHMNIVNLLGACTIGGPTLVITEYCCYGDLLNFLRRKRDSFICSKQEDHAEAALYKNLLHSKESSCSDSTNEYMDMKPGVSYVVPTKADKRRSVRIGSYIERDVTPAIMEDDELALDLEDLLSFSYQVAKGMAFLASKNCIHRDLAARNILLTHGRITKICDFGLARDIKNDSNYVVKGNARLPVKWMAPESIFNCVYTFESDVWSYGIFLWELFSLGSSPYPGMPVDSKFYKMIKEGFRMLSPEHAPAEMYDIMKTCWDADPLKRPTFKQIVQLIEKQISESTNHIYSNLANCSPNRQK

Abl = target: T13, Abl (Homo sapiens, UniProt P00519); assay: AlphaScreen kinase assay, Abl; settings: read-out: activity toward kinase Abl, IC50
T13 construct: P1121. pET-SPEC BI-PTP Abl G227-V515-X; His6 (N); made in house; host or cells: E. coli (PTP1B co-expressed)
T13 sequence (P00519 with tags, fused parts or gaps): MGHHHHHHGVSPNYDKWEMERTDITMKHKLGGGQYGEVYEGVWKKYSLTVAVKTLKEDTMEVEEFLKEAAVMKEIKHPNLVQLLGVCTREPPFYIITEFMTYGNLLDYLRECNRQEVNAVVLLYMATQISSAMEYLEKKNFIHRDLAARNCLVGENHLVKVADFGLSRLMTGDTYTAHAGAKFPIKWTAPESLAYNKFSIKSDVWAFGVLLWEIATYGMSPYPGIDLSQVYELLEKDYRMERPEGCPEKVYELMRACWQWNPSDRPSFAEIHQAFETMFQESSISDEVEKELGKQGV
Outline: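 Bead-proximity format: phosphopeptide links anti-phospho antibody acceptor beads to streptavidin donor beads via biotin tag. Compounds were serially diluted 1:3 (8 points) from 20 mM stocks in DMSO.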

T1 sequence (Q06187 whole entry): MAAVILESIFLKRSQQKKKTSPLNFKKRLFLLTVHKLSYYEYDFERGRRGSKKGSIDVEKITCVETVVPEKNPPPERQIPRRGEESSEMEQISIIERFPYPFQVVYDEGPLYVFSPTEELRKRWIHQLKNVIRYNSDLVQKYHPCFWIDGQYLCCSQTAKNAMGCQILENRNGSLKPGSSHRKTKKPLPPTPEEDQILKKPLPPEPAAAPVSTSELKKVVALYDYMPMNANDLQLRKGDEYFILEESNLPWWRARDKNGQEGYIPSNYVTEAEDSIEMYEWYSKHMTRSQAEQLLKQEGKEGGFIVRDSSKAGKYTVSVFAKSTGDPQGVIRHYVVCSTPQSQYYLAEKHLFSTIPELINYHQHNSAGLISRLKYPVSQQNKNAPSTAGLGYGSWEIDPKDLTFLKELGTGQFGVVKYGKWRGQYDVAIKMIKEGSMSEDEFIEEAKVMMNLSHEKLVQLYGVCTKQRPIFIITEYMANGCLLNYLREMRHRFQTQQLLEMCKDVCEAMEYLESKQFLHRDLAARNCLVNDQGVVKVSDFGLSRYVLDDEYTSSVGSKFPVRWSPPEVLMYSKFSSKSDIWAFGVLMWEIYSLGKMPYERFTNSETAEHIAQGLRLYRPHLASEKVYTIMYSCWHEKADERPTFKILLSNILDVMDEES

Structure (SMILES) | IC50 (Btk) [µM] | IC50 (Yes) [µM] | IC50 (Kdr) [µM] | IC50 (EphB2) [µM] | IC50 (Fms) [µM] | IC50 (Stk6) [µM] | IC50 (B-Raf V600E) [µM] | IC50 (Ret) [µM] | IC50 (FGFR1) [µM] | IC50 (B-Raf) [µM] | IC50 (Jnk3) [µM] | IC50 (Kit) [µM] | IC50 (Abl) [µM]
O=C(c1cccc(Cl)c1Cl)c1c[nH]c2nccc(-c3cccnc3)c12 [Compound P-0043] | ≤ 10 | ≤ 10 | ≤ 10 | ≤ 10 | – | ≤ 10 | ≤ 10 | ≤ 10 | ≤ 10 | – | – | – | –
CCc1cnc2[nH]cc(C(=O)c3cccc(O)c3)c2c1 [Compound P-0059] | ≤ 10 | ≤ 10 | ≤ 10 | ≤ 10 | – | – | ≤ 10 | ≤ 10 | ≤ 10 | ≤ 10 | ≤ 10 | ≤ 10 | –
COC(c1c(F)ccc(O)c1F)c1c[nH]c2ncc(Br)cc12 (centres unmarked) [Compound P-0126, 3-[(5-Bromo-1H-pyrrolo[2,3-b]pyridin-3-yl)-methoxy-methyl]-2,4-difluoro-phenol] | – | ≤ 10 | ≤ 10 | ≤ 10 | – | – | ≤ 10 | – | – | ≤ 10 | – | – | –
NC(=O)c1cccc(-c2ccnc3[nH]cc(C(=O)c4cccc(Cl)c4Cl)c23)c1 [Compound P-0139] | ≤ 10 | ≤ 10 | ≤ 10 | ≤ 10 | – | – | ≤ 10 | ≤ 10 | – | – | – | – | –
O=C(c1cccc(O)c1)c1c[nH]c2ncc(-c3cc(F)cc(F)c3)cc12 [Compound P-0074] | ≤ 10 | ≤ 10 | ≤ 10 | ≤ 10 | – | – | ≤ 10 | – | – | – | – | – | ≤ 10

Further lines, results first:

IC50 (Btk) [µM] | IC50 (Yes) [µM] | IC50 (Kdr) [µM] | IC50 (EphB2) [µM] | IC50 (Fms) [µM] | IC50 (Stk6) [µM] | IC50 (B-Raf V600E) [µM] | IC50 (Ret) [µM] | IC50 (FGFR1) [µM] | IC50 (B-Raf) [µM] | IC50 (Jnk3) [µM] | IC50 (Kit) [µM] | IC50 (Abl) [µM] | Structure (SMILES)
≤ 10 | ≤ 10 | ≤ 10 | ≤ 10 | – | – | – | – | – | – | – | – | – | Brc1cnc2[nH]cc(Sc3ccccc3)c2c1 [Compound P-0125]
≤ 10 | ≤ 10 | ≤ 10 | ≤ 10 | ≤ 10 | – | – | – | – | – | – | – | – | COc1cccc(Sc2c[nH]c3ncc(Br)cc23)c1 [Compound P-0145]
≤ 10 | ≤ 10 | ≤ 10 | ≤ 10 | – | – | ≤ 10 | ≤ 10 | – | – | – | – | – | COc1ccc(-c2ccnc3[nH]cc(C(=O)c4cccc(Cl)c4Cl)c23)cn1 [Compound P-0107]
